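48-hour exposure; five concentrations; linearly interpolated endpoints. TGI denotes the concentration required for complete inhibition of growth.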

Among the test systems are SNB-75 CNS; MDA-MB-231 breast; TK-10 renal; SK-MEL-2 melanoma; COLO 205 colon; K-562 leukemia; NCI/ADR-RES ovarian; HS 578T breast; OVCAR-5 ovarian; LOX IMVI melanoma; MOLT-4 leukemia; SK-MEL-28 melanoma; MDA-MB-435; UO-31 renal.
Holding throughout (assay): NCI tumour cell line growth inhibition, 48 h

With `CCO/C(O)=C(/C(=N)N1CCOCC1)C(=O)NC(C)C`, the TGI with SNB-75 CNS, in the assay with MDA-MB-231 breast, with TK-10 renal, in the assay on SK-MEL-2 melanoma, in the assay with COLO 205 colon and with K-562 leukemia was above 100 µM each time. Moreover, the TGI in the assay on NCI/ADR-RES ovarian, in the assay with HS 578T breast, in the assay with OVCAR-5 ovarian, with LOX IMVI melanoma, in the assay on MOLT-4 leukemia and in the assay with SK-MEL-28 melanoma was above 100 µM in each case. Further, the TGI in the assay on MDA-MB-435 is above 100 µM.
`Clc1sc(Cl)c2c1[C@H](Cl)C[C@@H]2Cl`: the TGI in the assay with SNB-75 CNS is 64.7 µM; with MDA-MB-231 breast it was 90.5 µM; in the assay on TK-10 renal it was 85.1 µM; in the assay with SK-MEL-2 melanoma it was 65.9 µM; with COLO 205 colon, 62.2 µM; with K-562 leukemia, above 100 µM. The TGI was 37.4 µM with NCI/ADR-RES ovarian; 44.1 µM in the assay on HS 578T breast; 32.3 µM with UO-31 renal; 81.2 µM in the assay on OVCAR-5 ovarian; 25.2 µM in the assay with LOX IMVI melanoma; above 100 µM in the assay with MOLT-4 leukemia. The TGI in the assay with SK-MEL-28 melanoma is 38.1 µM; in the assay with MDA-MB-435 it was 40.2 µM.
On to `C/C(=C\COP(=O)(O)OP(=O)(O)O)CCCCCCOCc1ccccc1`, for which the TGI in the assay with SNB-75 CNS, in the assay on MDA-MB-231 breast, in the assay on TK-10 renal, in the assay on COLO 205 colon, with K-562 leukemia and with NCI/ADR-RES ovarian was above 100 µM throughout. Besides, the TGI in the assay with HS 578T breast, in the assay with UO-31 renal, with OVCAR-5 ovarian, with LOX IMVI melanoma, with MOLT-4 leukemia and in the assay with SK-MEL-28 melanoma was above 100 µM each time. For the same compound, the TGI in the assay on MDA-MB-435 was above 100 µM.
As to `c1ccc2sc(SSSc3nc4ccccc4s3)nc2c1`, the TGI in the assay on SNB-75 CNS, in the assay on MDA-MB-231 breast, in the assay with TK-10 renal, in the assay on SK-MEL-2 melanoma, with COLO 205 colon and in the assay on K-562 leukemia was above 100 µM in each case. Moreover, the TGI was above 100 µM with NCI/ADR-RES ovarian; above 100 µM in the assay on HS 578T breast; above 100 µM with UO-31 renal; above 100 µM with OVCAR-5 ovarian; 49 µM with LOX IMVI melanoma; above 100 µM in the assay with MOLT-4 leukemia. Also, the TGI with SK-MEL-28 melanoma and with MDA-MB-435 was above 100 µM in each case.
On to `C=C(Cl)/C(=C\Cl)CCC(Cl)C(C)C` (centres undefined) (tested in a mixture with another compound), for which the TGI is 32.5 µM in the assay with SNB-75 CNS; 30.8 µM in the assay with MDA-MB-231 breast; 33.9 µM with TK-10 renal; 27.1 µM in the assay on SK-MEL-2 melanoma; 54.6 µM in the assay on COLO 205 colon; above 100 µM in the assay on K-562 leukemia. The TGI with NCI/ADR-RES ovarian is 84.4 µM; in the assay on HS 578T breast, 31.9 µM; in the assay with UO-31 renal, 32.1 µM; in the assay with OVCAR-5 ovarian it was 34.8 µM; in the assay with LOX IMVI melanoma, 3.67 µM; in the assay with MOLT-4 leukemia, above 100 µM. Also, the TGI turned out to be 34.8 µM in the assay on SK-MEL-28 melanoma and 28.8 µM in the assay with MDA-MB-435.
Turning to `C[C@@H]1S[C@H](c2c(F)cccc2Cl)n2c1nc1ccccc12`, the TGI with SNB-75 CNS was 60.8 µM; in the assay on MDA-MB-231 breast it was 27 µM; in the assay on TK-10 renal, above 100 µM; in the assay with SK-MEL-2 melanoma it was 29.3 µM; in the assay with COLO 205 colon, 23.6 µM; in the assay with K-562 leukemia, above 100 µM. Also, the TGI was 31.4 µM in the assay with NCI/ADR-RES ovarian; 41.6 µM in the assay on HS 578T breast; 24.2 µM in the assay on UO-31 renal; above 100 µM in the assay with OVCAR-5 ovarian; 25.3 µM in the assay on LOX IMVI melanoma; 32 µM in the assay with MOLT-4 leukemia. The TGI with SK-MEL-28 melanoma was determined as 26.5 µM; in the assay on MDA-MB-435 it was 25.1 µM.
Turning to `COc1ccc(Cc2cc(Cc3ccc(OC)cc3)cc(Cc3ccc(OC)cc3)c2)cc1`, the TGI in the assay on SNB-75 CNS, in the assay on MDA-MB-231 breast, in the assay on TK-10 renal, in the assay with SK-MEL-2 melanoma, in the assay with K-562 leukemia and with NCI/ADR-RES ovarian was above 100 µM each time. Moreover, the TGI with HS 578T breast, in the assay with UO-31 renal, with OVCAR-5 ovarian, with LOX IMVI melanoma, in the assay with MOLT-4 leukemia and in the assay with SK-MEL-28 melanoma was above 100 µM in each case. The same compound returned a TGI in the assay with MDA-MB-435 above 100 µM.
For the compound `CSC1=NN(C(C)=O)C(C(OC(C)=O)C(OC(C)=O)C(OC(C)=O)C(COC(C)=O)OC(C)=O)S1` (centres undefined), the TGI in the assay on SNB-75 CNS, with MDA-MB-231 breast, with TK-10 renal, in the assay on SK-MEL-2 melanoma, in the assay with COLO 205 colon and with K-562 leukemia was above 100 µM throughout. Besides, the TGI in the assay on NCI/ADR-RES ovarian, in the assay with HS 578T breast, in the assay with UO-31 renal, with OVCAR-5 ovarian, in the assay with LOX IMVI melanoma and with MOLT-4 leukemia was above 100 µM throughout. The TGI in the assay with SK-MEL-28 melanoma and in the assay with MDA-MB-435 was above 100 µM throughout.
As for `CN(C)[C@@H]1C(=O)C(C(=O)NCNc2nc3n[nH]nc3c(=O)[nH]2)=C(O)[C@@]2(O)C(=O)C3=C(O)c4c(O)cccc4[C@@](C)(O)[C@H]3C[C@@H]12`, the TGI in the assay with SNB-75 CNS is above 95.8 µM; in the assay with MDA-MB-231 breast it was above 100 µM; with TK-10 renal, above 80.5 µM; with SK-MEL-2 melanoma, 3.09 µM; with COLO 205 colon it was 57.4 µM; with K-562 leukemia it was above 16.9 µM. The TGI is above 100 µM in the assay on NCI/ADR-RES ovarian; 53.5 µM in the assay with HS 578T breast; 18.5 µM in the assay with UO-31 renal; 98.6 µM with OVCAR-5 ovarian; 17.3 µM in the assay with LOX IMVI melanoma; above 17.2 µM in the assay with MOLT-4 leukemia. Besides, the TGI with SK-MEL-28 melanoma amounted to 22.1 µM; in the assay with MDA-MB-435, 7.35 µM.
Regarding `CC(=O)NS(=O)(=O)c1ccc(NCc2cccc3c(=O)c4ccc(Cl)cc4oc23)cc1`, the TGI with SNB-75 CNS is above 100 µM; in the assay on MDA-MB-231 breast it was above 100 µM; with TK-10 renal, above 100 µM; with SK-MEL-2 melanoma, above 93.6 µM; in the assay with COLO 205 colon, above 100 µM; in the assay with K-562 leukemia, above 100 µM. Also, the TGI with NCI/ADR-RES ovarian is above 80.7 µM; in the assay with HS 578T breast, 97.7 µM; with UO-31 renal it was above 100 µM; with OVCAR-5 ovarian, above 100 µM; in the assay on LOX IMVI melanoma it was above 100 µM; in the assay on MOLT-4 leukemia, above 100 µM. Besides, the TGI in the assay on SK-MEL-28 melanoma and with MDA-MB-435 was above 100 µM throughout.
Turning to `COCn1cc(C2=C(C)C(=O)C(C)=C(C)C2=O)cn1`, the TGI with SNB-75 CNS is above 100 µM; in the assay on MDA-MB-231 breast, 40.8 µM; in the assay with TK-10 renal, above 100 µM; with SK-MEL-2 melanoma it was above 100 µM; with COLO 205 colon it was above 100 µM; in the assay with K-562 leukemia, 42.6 µM. Besides, the TGI with NCI/ADR-RES ovarian was 59.3 µM; with HS 578T breast, above 100 µM; with UO-31 renal, above 100 µM; with OVCAR-5 ovarian it was above 100 µM; in the assay with MOLT-4 leukemia it was 42 µM; in the assay with SK-MEL-28 melanoma, above 100 µM. Also, the TGI with MDA-MB-435 amounted to 33.9 µM.
For the compound `CC(=O)Nc1cc(Cl)cc(Cl)c1O`, the TGI with SNB-75 CNS, in the assay on MDA-MB-231 breast, in the assay on TK-10 renal, in the assay with SK-MEL-2 melanoma, in the assay on COLO 205 colon and in the assay with K-562 leukemia was above 100 µM each time. In addition, the TGI with NCI/ADR-RES ovarian, with HS 578T breast, in the assay with UO-31 renal, with OVCAR-5 ovarian, in the assay on MOLT-4 leukemia and in the assay with SK-MEL-28 melanoma was above 100 µM throughout. In addition, the TGI in the assay on MDA-MB-435 was above 100 µM.
Regarding `NS(=O)(=O)c1nnc(NS(=O)(=O)c2ccccc2[N+](=O)[O-])s1`, the TGI in the assay on SNB-75 CNS, in the assay on MDA-MB-231 breast, in the assay on TK-10 renal, in the assay on SK-MEL-2 melanoma, with COLO 205 colon and in the assay on K-562 leukemia was above 100 µM throughout. Also, the TGI in the assay on NCI/ADR-RES ovarian, with HS 578T breast, with UO-31 renal, in the assay with OVCAR-5 ovarian, in the assay with MOLT-4 leukemia and with SK-MEL-28 melanoma was above 100 µM each time. Further, in the assay on MDA-MB-435, the TGI is above 100 µM.
In the case of `CC1(C)OCC(CO)(CO)CO1`, the TGI in the assay with SNB-75 CNS, with MDA-MB-231 breast, in the assay with TK-10 renal, in the assay on COLO 205 colon, with K-562 leukemia and in the assay with NCI/ADR-RES ovarian was above 100 µM each time. Further, the TGI with HS 578T breast, with UO-31 renal, in the assay on LOX IMVI melanoma, in the assay on MOLT-4 leukemia, in the assay with SK-MEL-28 melanoma and in the assay on MDA-MB-435 was above 100 µM in each case.
Take `O=C(OCc1ccccc1)C(Cc1ccc(OCc2ccccc2)cn1)NC(=O)C(F)(F)F` (centres undefined): the TGI with SNB-75 CNS is 98.8 µM; in the assay on MDA-MB-231 breast, above 100 µM; in the assay on TK-10 renal, above 100 µM; in the assay with COLO 205 colon, above 100 µM; with K-562 leukemia it was above 100 µM; in the assay on NCI/ADR-RES ovarian, above 100 µM. Also, the TGI in the assay on HS 578T breast, with UO-31 renal, in the assay with OVCAR-5 ovarian, in the assay with LOX IMVI melanoma, in the assay on MOLT-4 leukemia and with SK-MEL-28 melanoma was above 100 µM throughout. This compound also had a TGI in the assay on MDA-MB-435 above 100 µM.
With `Cc1ccc2[nH]c3c(c(=O)n(C)c(=O)n3C)c2c1`, the TGI in the assay on SNB-75 CNS, with MDA-MB-231 breast, in the assay with TK-10 renal, in the assay with SK-MEL-2 melanoma, in the assay on COLO 205 colon and in the assay on K-562 leukemia was above 100 µM in each case. The TGI in the assay on NCI/ADR-RES ovarian, in the assay with HS 578T breast, in the assay on UO-31 renal, with OVCAR-5 ovarian, with LOX IMVI melanoma and with MOLT-4 leukemia was above 100 µM each time. The compound further displayed a TGI with MDA-MB-435 above 100 µM.

The record behind these values is PubChem BioAssay (NCI).
